Measured values reported in patent publication US9625444B2, “Artificial immune system: methods of use” (Sanofi Pasteur VaxDesign Corporation, priority 2004, dated 2017).

Tests used:
[1] = test system: human monocytes; conditions: known value used for comparison; cited from earlier work
[2] = test system: human monocytes and dendritic cells; experiment: in vitro chemotaxis towards chemoattractant-releasing PLGA microspheres; assay type: cell-based; conditions: PLGA microspheres releasing the chemoattractant
Description: FIG. 7A is a schematic representation of the experimental design. […] FIGS. 7C and 7D show the movement of monocyte-derived DCs and monocytes, respectively, towards the vaccination site source well.
PLGA (poly(lactide-co-glycolide)) microspheres provide steady controlled release of encapsulated chemokines. […] Synthetic inverse opal hydrogel scaffolds were synthesized that support T-cell migration and interaction with B cells (FIG. 8A), and support attachment and growth of high cell densities, which is an important feature in mimicking the microenvironment of the lymph node (FIG. 8B).

[3] = test system: human monocytes; experiment: rapid chemokine testing system (lateral motility / chemotaxis of cells); assay type: cell-based
Protocol: The BioAssembly Tool (BAT) has been modified for use in observations of the lateral motility of cells in experiments on chemotaxis. The described setup enables rapid screening of chemokines and cell matrices (typically, one experiment can take about half to one hour).
Three chemokines, fMLP-FITC; […], and MIP-3β, were tested with human monocytes. […] MIP-3β was found ineffective (as expected for immature monocytes); MIP-3α was found effective, despite negative information and expectations. […] Thus, fibrin matrices should be used preferably in cases when cell retention is required, and collagen should be used to make cell-permeable barriers. This latter observation may be important when considering the use of ETCs for wound healing procedures. This system can be used to further refine and optimize chemokine doses using various microparticle strategies and formulations, temporal release characteristics, and scaffold characteristics (e.g., geometry, porosity, material) on cell migration.
The rapid chemokine testing system can be used to examine saturation of cell receptors by chemokines. When a chemokine reaches its saturating concentration, cells become insensitive to the signal and stop their locomotion. In most cases, chemotaxis occurs through gradients of chemokines.

[4] = test system: monocytes; experiment: monocyte attraction to implanted extracellular matrix scaffold; assay type: in vivo; conditions: mouse

## CSCC[C@H](NC=O)C(=O)N[C@@H](CC(C)C)C(=O)N[C@@H](Cc1ccccc1)C(=O)O [fMLP, N-formyl-methionyl-leucyl-phenylalanine]
[1]
  saturation level known: ~30 nM
[2]
  movement of cells towards releasing microspheres: move towards microspheres

## MIP-3α: chemokine (macrophage inflammatory protein-3) tested with human monocytes
[3]
  effectiveness of the chemokine: effective

## MIP-3β: macrophage inflammatory protein-3β, a 10 kDa chemoattractant chemokine
[4]
  attraction of monocytes (immunohistochemical staining): attracted
[3]
  effectiveness of the chemokine: ineffective

## N-formyl-methionyl-leucyl-phenylalanine-fluorescein isothiocyanate [fMLP FITC]
[3]
  saturation level: ~40 nM
